Reference: patent US20230312578A1, “6H-INDOLO[2,3-B]QUINOXALINE DERIVATIVES USEFUL IN THERAPY” (Vironova Medical AB, priority 2020, published 2023)
Where two headings read alike, the source gives them in different places.

How the values were obtained:
Type in all cases: cell-based
[1] = Human tumor cell line growth assay (SRB); details: human, EKVX cells (NSCLC), read-out: LC50
EKVX = assay: Human tumor cell line growth assay (SRB); details: Homo sapiens, NSCLC, 48 h
[2] = Human tumor cell line growth assay (SRB); details: human, HOP-62 cells (NSCLC), HOP-62, 48 h, read-out: LC50
HOP-62 = assay: Human tumor cell line growth assay (SRB); details: Homo sapiens; NSCLC, HOP-62, 48 h
[3] = Human tumor cell line growth assay (SRB); details: human, HOP-92 cells (NSCLC), HOP-92, 48 h
HOP-92 = assay: Human tumor cell line growth assay (SRB); details: Homo sapiens; NSCLC, HOP-92, 48 h
[4] = Human tumor cell line growth assay (SRB); details: human, NCI-H226 cells (NSCLC), NCI-H226, 48 h, read-out: LC50
NCI-H226 = assay: Human tumor cell line growth assay (SRB); details: Homo sapiens; NSCLC, NCI-H226, 48 h
[5] = Human tumor cell line growth assay (SRB); details: human, NCI-H322M cells (NSCLC), read-out: LC50
NCI-H322M = assay: Human tumor cell line growth assay (SRB); details: Homo sapiens, NSCLC, 48 h
[6] = Human tumor cell line growth assay (SRB); details: human, NCI-H460 cells (NSCLC), NCI-H460, 48 h, read-out: LC50
NCI-H460 = assay: Human tumor cell line growth assay (SRB); details: Homo sapiens; NSCLC, NCI-H460, 48 h
[7] = Human tumor cell line growth assay (SRB); details: human, HCC-2998 cells (colon), HCC-2998, 48 h, read-out: LC50
HCC-2998 = assay: Human tumor cell line growth assay (SRB); details: Homo sapiens; Colon, HCC-2998, 48 h
[8] = Human tumor cell line growth assay (SRB); details: human, HT29 cells (colon), HT29, 48 h, read-out: LC50
HT29 = assay: Human tumor cell line growth assay (SRB); details: Homo sapiens, HT-29; Colon, HT29, 48 h
[9] = Human tumor cell line growth assay (SRB); details: human, SF-268 cells (CNS), SF-268, 48 h
SF-268 = assay: Human tumor cell line growth assay (SRB); details: Homo sapiens; CNS, SF-268, 48 h
[10] = Human tumor cell line growth assay (SRB); details: human, SF-539 cells (CNS), SF-539, 48 h, read-out: LC50
SF-539 = assay: Human tumor cell line growth assay (SRB); details: Homo sapiens; CNS, SF-539, 48 h
[11] = Human tumor cell line growth assay (SRB); details: human, MDA-MB-435 cells (melanoma), MDA-MB-435, 48 h, read-out: LC50
MDA-MB-435 = assay: Human tumor cell line growth assay (SRB); details: Homo sapiens; Melanoma, MDA-MB-435, 48 h
[12] = Human tumor cell line growth assay (SRB); details: human, SK-MEL-28 cells (melanoma), SK-MEL-28, 48 h, read-out: LC50
SK-MEL-28 = assay: Human tumor cell line growth assay (SRB); details: Homo sapiens; Melanoma, SK-MEL-28, 48 h
[13] = Human tumor cell line growth assay (SRB); details: human, UACC-62 cells (melanoma), UACC-62, 48 h, read-out: LC50
UACC-62 = assay: Human tumor cell line growth assay (SRB); details: Homo sapiens; Melanoma, UACC-62, 48 h
[14] = Human tumor cell line growth assay (SRB); details: human, OVCAR-3 cells (ovarian), OVCAR-3, 48 h, read-out: LC50
OVCAR-3 = assay: Human tumor cell line growth assay (SRB); details: Homo sapiens; Ovarian, OVCAR-3, 48 h
[15] = Human tumor cell line growth assay (SRB); details: human, OVCAR-5 cells (ovarian), OVCAR-5, 48 h, read-out: LC50
OVCAR-5 = assay: Human tumor cell line growth assay (SRB); details: Homo sapiens; Ovarian, OVCAR-5, 48 h
SK-OV-3 = assay: Human tumor cell line growth assay (SRB); details: Ovarian, SK-OV-3, 48 h
PC-3 = assay: Human tumor cell line growth assay (SRB); details: Prostate, PC-3, 48 h
DU-145 = assay: Human tumor cell line growth assay (SRB); details: Prostate, DU-145, 48 h
MCF7 = assay: Human tumor cell line growth assay (SRB); details: Breast, MCF7, 48 h
HS 578T = assay: Human tumor cell line growth assay (SRB); details: Breast, 48 h
BT-549 = assay: Human tumor cell line growth assay (SRB); details: Breast, BT-549, 48 h
Human tumor cell lines = assay: Human tumor cell line growth assay (SRB), summary over the panel; details: overall over the panel
[16] = read-out: LC50 (the source's name)

Structure (SMILES): Cc1cc2nc3c4cc(N)ccc4n(CCN(C)C)c3nc2cc1C [JBD-136, 6-(2-(dimethylamino)ethyl)-2,3-dimethyl-6H-indolo [2,3-b]quinoxalin-9-amine]
- CC50 at 48 h [1]: > 100000 nM
- GI50 (EKVX): 1990 nM
- CC50 at 48 h [2]: > 100000 nM
- GI50 (HOP-62): 1140 nM
- LC50 at 48 h [3]: > 100000 nM
- GI50 (HOP-92): 912 nM
- CC50 at 48 h [4]: > 100000 nM
- GI50 (NCI-H226): 1320 nM
- CC50 at 48 h [5]: > 100000 nM
- GI50 (NCI-H322M): 771 nM
- CC50 at 48 h [6]: 36600 nM
- GI50 (NCI-H460): 434 nM
- CC50 at 48 h [7]: 21900 nM
- GI50 (HCC-2998): 1020 nM
- CC50 at 48 h [8]: > 100000 nM
- GI50 (HT29): 430 nM
- LC50 (50% lethal concentration) at 48 h [9]: 42700 nM
- GI50 (SF-268): 1570 nM
- CC50 at 48 h [10]: 19500 nM
- GI50 (SF-539): 882 nM
- CC50 at 48 h [11]: 5600 nM
- GI50 (MDA-MB-435): 1050 nM
- CC50 at 48 h [12]: 11400 nM
- GI50 (SK-MEL-28): 2260 nM
- CC50 at 48 h [13]: 7990 nM
- GI50 (UACC-62): 1180 nM
- CC50 at 48 h [14]: 75800 nM
- GI50 (OVCAR-3): 1560 nM
- CC50 at 48 h [15]: > 100000 nM
- GI50 (OVCAR-5): 1240 nM
- GI50 (SK-OV-3): 2230 nM
- CC50 (SK-OV-3; [16]): > 100000 nM
- GI50 (PC-3): 1280 nM
- CC50 (PC-3; [16]): 51900 nM
- GI50 (DU-145): 1550 nM
- CC50 (DU-145; [16]): 47800 nM
- GI50 (MCF7): 675 nM
- CC50 (MCF7; [16]): 57500 nM
- GI50 (HS 578T): 2120 nM
- CC50 (HS 578T; [16]): > 100000 nM
- GI50 (BT-549): 1780 nM
- CC50 (BT-549; [16]): 27900 nM
- growth inhibition (GI50), comparison in words (Human tumor cell lines): slightly improved growth inhibition and cytotoxicity compared to B220
